This note sets out measurements from patent US6433188B1, “Fused heteroaromatic glucokinase activators” (priority 2000, dated 2002).

The melting point is the temperature, or range, at which the solid turns liquid. The compound `O=C(Nc1nc2c(s1)CCCC2)C(CC1CCCC1)c1ccc(Cl)c(Cl)c1` (stereo not drawn) [Example 1, 3-Cyclopentyl-2-(3,4-dichloro-phenyl)-N-(4,5,6,7-tetrahydro-benzothiazol-2-yl)-propionamide] displayed a melting point of 170 to 171 °C.
`O=C(Nc1nc2ccccc2s1)C(CC1CCCC1)c1ccc(Cl)c(Cl)c1` (stereo not drawn) [Example 2, N-Benzothiazol-2-yl-3-cyclopentyl-2-(3,4-dichloro-phenyl)-propionamide] came in with a melting point of 104 to 105 °C.
Consider `O=C(Nc1nc2ccc(F)cc2s1)C(CC1CCCC1)c1ccc(Cl)c(Cl)c1` (stereo not drawn) [Example 4, 3-Cyclopentyl-2-(3,4-dichloro-phenyl)-N-(6-fluoro-benzothiazol-2-yl)-propionamide], for which the melting point was in the range of 131 to 133 °C.
`O=C(Nc1nc2ccccc2[nH]1)C(CC1CCCC1)c1ccc(Cl)c(Cl)c1` (stereo not drawn) [Example 8, N-(1H-Benzimidazol-2-yl)-3-cyclopentyl-2-(3,4-dichloro-phenyl)-propionamide] returned a melting point of 193.4 to 196.8 °C.
For `O=C(Nc1ccc2ccccc2n1)C(CC1CCCC1)c1ccc(Cl)c(Cl)c1` (stereo not drawn) [Example 10, 3-Cyclopentyl-2-(3,4-dichloro-phenyl)-N-quinolin-2-yl-propionamide] the value was 172 to 173 °C; for `CS(=O)(=O)c1ccc(C(CC2CCCC2)C(=O)Nc2nc3ccccc3s2)cc1` (stereo not drawn) [Example 12(A), N-Benzothiazol-2-yl-3-cyclopentyl-2-(4-methanesulfonyl-phenyl)-propionamide], 206 to 209 °C.
In the case of `CS(=O)(=O)c1ccc([C@@H](CC2CCCC2)C(=O)Nc2nc3ccccc3[nH]2)cc1` [Example 13, N-(1H-Benzimidazol-2-yl)-3-cyclopentyl-2(R)-(4-methanesulfonyl-phenyl)-propionamide], the melting point was in the range of 230 to 232 °C.
To `CS(=O)(=O)c1ccc([C@@H](CC2CCCC2)C(=O)Nc2nc3ccccc3s2)cc1` [Example 14, N-Benzothiazol-2-yl-3-cyclopentyl-2(R)-(4-methanesulfonyl-phenyl)-propionamide] belongs 100 to 105 °C.
Compound `CS(=O)(=O)c1ccc([C@@H](CC2CCCC2)C(=O)Nc2nc3ccccc3[nH]2)cc1Cl` [Example 21, N-(1H-Benzimidazol-2-yl)-2(R)-(3-chloro-4-methanesulfonyl-phenyl)-3-cyclopentyl-propionamide] yielded a melting point above 215 °C.
In turn, `CS(=O)(=O)c1ccc(C(CC2CCCC2)C(=O)Nc2nc3ccccc3[nH]2)cc1Br` (stereo not drawn) [Example 24(A), N-(1H-Benzimidazol-2-yl)-2-(3-bromo-4-methanesulfonyl-phenyl)-3-cyclopentyl-propionamide] showed a melting point above 220 °C.
Take `CS(=O)(=O)c1ccc(C(CC2CCCC2)C(=O)Nc2ccc3ccccc3n2)cc1Br` (stereo not drawn) [Example 25, 2-(3-Bromo-4-methanesulfonyl-phenyl)-3-cyclopentyl-N-quinolin-2-yl-propionamide]: the melting point was 95 to 100 °C.
Compound `CS(=O)(=O)c1ccc(C(CC2CCCC2)C(=O)Nc2nc3ccccc3s2)cc1C#N` (stereo not drawn) [Example 26, N-Benzothiazol-2-yl-2-(3-cyano-4-methanesulfonyl-phenyl)-3-cyclopentyl-propionamide] registered a melting point of 115 to 118 °C.
With `CS(=O)(=O)c1ccc(C(CC2CCCC2)C(=O)Nc2nc3ccccc3o2)cc1C#N` (stereo not drawn) [Example 27, N-Benzoxazol-2-yl-2-(3-cyano-4-methanesulfonyl-phenyl)-3-cyclopentyl-propionamide], the melting point was in the range of 108 to 112 °C.
Turning to `CS(=O)(=O)c1ccc(C(CC2CCCC2)C(=O)Nc2nc3ccccc3[nH]2)cc1C#N` (stereo not drawn) [Example 28, N-(1H-Benzimidazol-2-yl)-2-(3-cyano-4-methanesulfonyl-phenyl)-3-cyclopentyl-propionamide], the melting point was 148 to 152 °C.
In turn, `CS(=O)(=O)c1ccc(C(CC2CCCC2)C(=O)Nc2ccc3ccccc3n2)cc1C#N` (stereo not drawn) [Example 29, 2-(3-Cyano-4-methanesulfonyl-phenyl)-3-cyclopentyl-N-quinolin-2-yl-propionamide] displayed a melting point of 95 to 99 °C.
The compound `CS(=O)(=O)c1ccc(C(CC2CCCC2)C(=O)Nc2ccc3ccccc3n2)cc1C(F)(F)F` (stereo not drawn) [Example 30, 3-Cyclopentyl-2-(4-methanesulfonyl-3-trifluoromethyl-phenyl)-N-quinolin-2-yl-propionamide] registered a melting point of 90 to 95 °C.
For `CS(=O)(=O)c1ccc(C(CC2CCCC2)C(=O)Nc2nc3ccccc3s2)cc1C(F)(F)F` (stereo not drawn) [Example 31(A), N-Benzothiazol-2-yl-3-cyclopentyl-2-(4-methanesulfonyl-3-trifluoromethyl-phenyl)-propionamide] the value was 105 to 110 °C; for `CS(=O)(=O)c1ccc(C(CC2CCCC2)C(=O)Nc2nc3ccccc3s2)cc1[N+](=O)[O-]` (stereo not drawn) [Example 32, N-Benzothiazol-2-yl-3-cyclopentyl-2-(4-methanesulfonyl-3-nitro-phenyl)-propionamide], 108 to 113 °C.
Turning to `CS(=O)(=O)c1ccc(C(CC2CCCC2)C(=O)Nc2nc3ccccc3o2)cc1[N+](=O)[O-]` (stereo not drawn) [Example 33, N-Benzoxazol-2-yl-3-cyclopentyl-2-(4-methanesulfonyl-3-nitro-phenyl)-propionamide], the melting point was 106 to 111 °C.
To `CS(=O)(=O)c1ccc(C(CC2CCCC2)C(=O)Nc2nc3ccccc3[nH]2)cc1[N+](=O)[O-]` (stereo not drawn) [Example 34, N-(1H-Benzimidazol-2-yl)-3-cyclopentyl-2-(4-methanesulfonyl-3-nitro-phenyl)-propionamide] belongs 113 to 117 °C; to `CS(=O)(=O)c1ccc(C(CC2CCCC2)C(=O)Nc2ccc3ccccc3n2)cc1[N+](=O)[O-]` (stereo not drawn) [Example 35, 3-Cyclopentyl-2-(4-methanesulfonyl-3-nitro-phenyl)-N-quinolin-2-yl-propionamide], 102 to 106 °C.
